Results on 32 molecules are retold here after ChEMBL document CHEMBL5352390, “Design, synthesis and biological evaluation of (Quinazoline 4-yloxy)acetamide and (4-oxoquinazoline-3(4H)-yl)acetamide derivatives as inhibitors of Mycobacterium tuberculosis bd oxidase” (2022).

In brackets after ≈: the same amount, converted by molar mass. Activity calls are given as the source filed them. The calls are words filed in the database; no cut-off is given here.

Assay [1] has as its system Mycobacterium tuberculosis. Briefly: Antimycobacterial activity against wild type Mycobacterium tuberculosis H37Rv assessed as inhibition of bacterial growth incubated for 7 days by resazurin microplate assay. The format is functional. To be noted: 168 h, time 7 day.
The subject of assay [2] is Mycobacterium tuberculosis. The assay is described as follows: Synergistic antimycobacterial activity against wild type Mycobacterium tuberculosis H37Rv assessed as fractional inhibitory concentration index incubated for 7 days in presence of Q203 by checkboard format based resazurin microplate assay. It is filed as functional. To be noted: time 7 day.
The test system of assay [3] is Mycobacterium tuberculosis. Briefly: Bactericidal activity against wild type Mycobacterium tuberculosis H37Rv under hypoxia condition assessed as reduction in log10 CFU at 32 uM incubated for 3 days by Methylene blue dye based CFU assay. To be noted: time 3 day. The format is functional.
Assay [4] deals with Mycobacterium tuberculosis. Briefly: Synergistic bactericidal activity against wild type Mycobacterium tuberculosis H37Rv under hypoxia condition assessed as reduction in log10 CFU at 32 uM incubated for 3 days in presence of Q203 by Methylene blue dye based CFU assay. It is filed as functional. To be noted: time 3 day.
Assay [5] deals with Mycobacterium tuberculosis. Briefly: Inhibition of wild type Mycobacterium tuberculosis H37Rv cytochrome bd oxidase assessed as reduction in total cellular ATP level by measuring relative luminescence unit at 32 uM incubated for 15 hrs by BacTiter-Glo microbial cell viability reagent based bioluminescence assay relative to control (Rvb= 13.73%).
Assay [6] deals with Mycobacterium tuberculosis. The assay is described as follows: Inhibition of wild type Mycobacterium tuberculosis H37Rv cytochrome bd oxidase assessed as reduction in total cellular ATP level by measuring relative luminescence unit at 32 uM incubated for 15 hrs in presence of Q203 by BacTiter-Glo microbial cell viability reagent based bioluminescence assay relative to control (Rvb= 13.73%).

In assay [7] the test system is Mycobacterium tuberculosis. Briefly: Inhibition of wild type Mycobacterium tuberculosis H37Rv cytochrome bd oxidase assessed as inhibition of oxygen consumption at 16 to 64 uM and measured after 5 days by Methylene blue dye based assay. To be noted: dose 16-64 µM, time 5.0 day.
Assay [8] has as its system Mycobacterium tuberculosis. Briefly: Inhibition of wild type Mycobacterium tuberculosis H37Rv cytochrome bd oxidase assessed as inhibition of oxygen consumption at 16 to 64 uM and measured for 20 days in presence of Q203 by Methylene blue dye based assay. To be noted: dose 16-64 µM, time 20.0 day.
Assay [9] relates to Mycobacterium tuberculosis. The assay is described as follows: Bactericidal activity against wild type Mycobacterium tuberculosis H37Rv under hypoxia condition assessed as reduction in log10 CFU at 0.5 uM incubated for 3 days by Methylene blue dye based CFU assay. The format is functional. To be noted: time 3 day.
The subject of assay [10] is Mycobacterium tuberculosis. Briefly: Bactericidal activity against wild type Mycobacterium tuberculosis H37Rv under hypoxia condition assessed as reduction in log10 CFU at 0.03 uM incubated for 3 days by Methylene blue dye based CFU assay. It is filed as functional. To be noted: time 3 day.
In assay [11] the test system is Mycobacterium tuberculosis. Briefly: Inhibition of wild type Mycobacterium tuberculosis H37Rv cytochrome bd oxidase assessed as reduction in total cellular ATP level by measuring relative luminescence unit at 0.1 uM incubated for 15 hrs by BacTiter-Glo microbial cell viability reagent based bioluminescence assay relative to control (Rvb= 13.73%).
Assay [12] has as its system Mycobacterium tuberculosis. Briefly: Inhibition of wild type Mycobacterium tuberculosis H37Rv cytochrome bd oxidase assessed as inhibition of oxygen consumption at 0.1 uM and measured after 5 days by Methylene blue dye based assay. To be noted: time 5.0 day.
For assay [13], the system named is Mycobacterium tuberculosis. Briefly: Bactericidal activity against wild type Mycobacterium tuberculosis H37Rv under hypoxia condition assessed as reduction in log10 CFU at 0.5 ug/ml incubated for 3 days by Methylene blue dye based CFU assay. The format is functional, organism-based. To be noted: dose 0.5 µg/ml, time 3.0 day.

Consider `O=C(COc1ncnc2ccccc12)NCc1ccccc1`, for which the MIC in assay [1] was more than 32 µM. Same read-out and setting: the value for `O=C(Cn1cnc2ccccc2c1=O)Nc1ccc(F)cc1` was more than 32 µM; that for `COc1ccc(N2CCN(c3ccc(CNC(=O)COc4ncnc5ccccc45)cc3)CC2)cc1` was more than 32 µM; that for `O=C(COc1ncnc2ccccc12)NCc1ccc(N2CCN(c3ccccc3)CC2)cc1` was more than 32 µM. Turning to `O=C(COc1ncnc2ccccc12)Nc1ccc(OC(F)(F)F)cc1`, in [1], the MIC is more than 32 µM. For the molecule `O=C(Cn1cnc2ccccc2c1=O)Nc1ccc(Cl)cc1`, the minimum inhibitory concentration (MIC) in assay [1] is more than 32 µM.

For `O=C(COc1ncnc2ccccc12)NCc1ccc(N2CCN(c3ccc(F)cc3)CC2)cc1`, in [1], the MIC was more than 32 µM. On the same count and under the same terms, to `O=C(COc1ncnc2ccccc12)Nc1ccc(C(F)(F)F)cc1` belongs more than 32 µM. `O=C(COc1ncnc2ccccc12)Nc1ccc(Cl)cc1`: in assay [2], the “fractional inhibitory concentration index (FICI)” value was found to be 0.375. In addition, the minimum inhibitory concentration (MIC) in assay [1] came to 256 µM (≈ 80.3 µg/mL). For the same molecule, the Activity in assay [3] worked out at 1.9 log10CFU; in assay [4] it was 4 log10CFU. Besides, the inhibition in [5] was found to be 22.8%; in assay [6], 91.2%. Further, in assay [7], the inhibition result is “inactive”. The inhibition entry in assay [8] is “Active”. In the case of `COc1ccccc1NC(=O)COc1ncnc2ccccc12`, in [1], the MIC is more than 32 µM. Still for that read-out and setting: to `O=C(COc1ncnc2ccccc12)Nc1ccc(F)cc1` belongs more than 32 µM; to `COc1ccc(NC(=O)COc2ncnc3ccccc23)cc1`, more than 32 µM; to `O=C(COc1ncnc2ccccc12)NCc1ccc(N2CCC(c3ccccc3)CC2)cc1`, more than 32 µM.

Consider `O=C(Cn1cnc2ccccc2c1=O)Nc1ccccc1`, for which the MIC in assay [1] was more than 32 µM. On the same count and under the same terms, to `Cc1ccc(NC(=O)Cn2cnc3ccccc3c2=O)cc1` belongs more than 32 µM; to `O=C(Cn1cnc2ccccc2c1=O)NC1=C(C(F)(F)F)CCC=C1`, more than 32 µM. Consider `O=C(COc1ncnc2ccccc12)Nc1ccccc1`, for which, in assay [2], the “fractional inhibitory concentration index (FICI)” value is reported as 1.062. In addition, the MIC in [1] was determined as 128 µM (≈ 35.8 µg/mL). The results for the Activity in assay [3] and in [4] were 1.9 log10CFU and 4 log10CFU, respectively. For the same molecule, the results for the inhibition in assay [5] and in [6] were 7% and 89.8%, respectively. In addition, the inhibition entry in [7] was “inactive”. Besides, in assay [8], the inhibition entry is “Active”. As for `O=C(Cn1cnc2ccccc2c1=O)Nc1ccc([N+](=O)[O-])cc1`, the MIC in [1] is more than 32 µM. Regarding `O=C(COc1ncnc2ccccc12)NCc1ccc(N2CCN(Cc3ccccc3)CC2)cc1`, in assay [1], the minimum inhibitory concentration (MIC) is more than 32 µM. As to `COc1nc2ccc(Br)cc2cc1[C@@H](c1ccccc1)[C@@](O)(CCN(C)C)c1cccc2ccccc12` [BEDAQUILINE], in assay [9], the Activity was 2.3 log10CFU. In the case of `O=C(Cn1cnc2ccccc2c1=O)Nc1ccc(OC(F)(F)F)cc1`, in assay [1], the MIC is more than 32 µM. With `O=C(Cn1cnc2ccccc2c1=O)Nc1ccc(C(F)(F)F)cc1`, the MIC in assay [1] was more than 32 µM.

For the molecule `COc1ccc(NC(=O)Cn2cnc3ccccc3c2=O)cc1`, the MIC in assay [1] was more than 32 µM. As to `CSc1ccc(NC(=O)Cn2cnc3ccccc3c2=O)cc1`, the MIC in assay [1] was more than 32 µM. The same measure, in the same setting: to `Cc1ccc(NC(=O)COc2ncnc3ccccc23)cc1` belongs more than 32 µM; to `O=C(COc1ncnc2ccccc12)Nc1ccc(Br)cc1`, more than 32 µM. On to `Cc1ccccc1NC(=O)COc1ncnc2ccccc12`, for which the MIC in assay [1] is more than 32 µM. Still for that read-out and setting: the value for `O=C(Cn1cnc2ccccc2c1=O)Nc1ccc(Br)cc1` was more than 32 µM. As to `CCc1nc2ccc(Cl)cn2c1C(=O)NCc1ccc(N2CCC(c3ccc(OC(F)(F)F)cc3)CC2)cc1` [TELACEBEC], the MIC in [1] worked out at 0.016 µM (≈ 0.00891 µg/mL). Further, the Activity in assay [10] is 0.8 log10CFU. Further, the inhibition in assay [11] was found to be 33.4%. For the same molecule, the inhibition result in [12] is “inactive”. With `NNC(=O)c1ccncc1`, in assay [13], the outcome was inactive. Take `O=C(COc1ncnc2ccccc12)Nc1cccc2ccccc12`: the MIC in [1] is more than 32 µM. For the molecule `COc1ccccc1NC(=O)Cn1cnc2ccccc2c1=O`, the MIC in assay [1] is more than 32 µM.
